Test results from publication PMC9192638, “Compact IF2 allows initiator tRNA accommodation into the P site and gates the ribosome to elongation” (Nature Communications, 2022).

Experiments:
[1] = biological target: T1, IF2 (initiation factor 2) (Pseudomonas aeruginosa, UniProt Q9HV55); test: cryo-EM structure; assay type: binding; conditions: pH 7.6, 10 mM MgCl2
T1 construct: gene infB; full-length; N-terminal 6xHis-SMT3 tag removed by Ulp1; expressed in E. coli BL21(DE3) Star; compact model residues 337-835
T1 sequence (Q9HV55 whole entry, the tested form may be a part): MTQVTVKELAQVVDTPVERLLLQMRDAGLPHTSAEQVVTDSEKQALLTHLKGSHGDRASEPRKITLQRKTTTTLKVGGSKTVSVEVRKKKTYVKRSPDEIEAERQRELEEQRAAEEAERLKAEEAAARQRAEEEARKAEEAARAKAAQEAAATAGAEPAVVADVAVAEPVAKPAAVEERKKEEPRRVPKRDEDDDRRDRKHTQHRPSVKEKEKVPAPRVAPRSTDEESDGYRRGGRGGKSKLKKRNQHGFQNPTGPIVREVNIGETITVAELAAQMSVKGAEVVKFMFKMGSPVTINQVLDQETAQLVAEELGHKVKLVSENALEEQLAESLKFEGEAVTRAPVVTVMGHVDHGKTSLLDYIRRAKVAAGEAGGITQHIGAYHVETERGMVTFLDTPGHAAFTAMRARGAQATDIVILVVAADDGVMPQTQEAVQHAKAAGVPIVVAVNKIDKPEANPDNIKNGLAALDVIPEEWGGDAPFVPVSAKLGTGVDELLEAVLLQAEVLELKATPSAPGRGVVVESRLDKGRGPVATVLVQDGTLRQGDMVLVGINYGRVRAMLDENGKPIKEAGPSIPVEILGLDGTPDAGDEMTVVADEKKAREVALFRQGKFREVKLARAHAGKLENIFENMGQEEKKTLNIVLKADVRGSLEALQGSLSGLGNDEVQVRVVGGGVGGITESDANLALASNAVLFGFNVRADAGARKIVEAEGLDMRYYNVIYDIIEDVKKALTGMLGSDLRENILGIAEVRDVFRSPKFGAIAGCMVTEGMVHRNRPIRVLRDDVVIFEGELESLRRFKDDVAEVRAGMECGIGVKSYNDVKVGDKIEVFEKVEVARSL

[2] = biological target: T2, initiation factor 2 (IF2) from Pseudomonas aeruginosa (Pseudomonas aeruginosa PAO1, UniProt Q9HV55 1-840); test: cryo-EM structure; rotated 70S-IC with extended IF2-GDPCP (structures II-A and II-B); 2 uM 70 S ribosome, 25 uM mRNA, 10 uM fMet-tRNA, 30 uM IF2, 2 mM GDPCP; 10 mM Hepes 7.6, 60 mM NH4Cl, 15 mM KCl, 10 mM MgCl2; conditions: both partners purified
T2 construct: Translation initiation factor IF2, Pseudomonas aeruginosa PAO1; residues modelled in the maps: 248-332 (N2 sub-domain region, extended IF2) and 337-835 (compact IF2); Co-purifies with GDP; GDPCP was added to the complex, so the sample held IF2-GDP (compact) and IF2-GDPCP (extended); also called PaeIF2; IF2-GDP; source: E. coli BL21 (DE3) Star, purified (HisTrap, Ulp1 cleavage, reverse HisTrap, …)
T2 sequence (Q9HV55 whole entry): as the sequence (Q9HV55 whole entry, the tested form may be a part) above

Nc1nc2c(ncn2[C@@H]2O[C@H](COP(=O)(O)OP(=O)(O)CP(=O)(O)O)[C@@H](O)[C@H]2O)c(=O)[nH]1 [GDPCP, β,γ-methyleneguanosine 5’-triphosphate]
cryo-EM structure ([1]; extended IF2 on rotated 70S ribosome initiation complex with mRNA and fMet-tRNA, 2 mM GDPCP added, G-domain nucleotide site with Mg2+): well-defined density for extended IF2 and GDPCP in the G-domain

Nc1nc2c(ncn2[C@@H]2O[C@H](COP(=O)(O)OP(=O)(O)O)[C@@H](O)[C@H]2O)c(=O)[nH]1 [GDP]
cryo-EM structure ([1]; compact IF2 on non-rotated 70S ribosome initiation complex with mRNA and fMet-tRNA, GDP co-purified with IF2, G-domain nucleotide site): visualizes the GDP nucleotide bound in the G-domain

B1: ribosomal protein uL16 (natural protein, UniProt Q9HWE2 1-137, looked up)
chain: MLQPKRTKFRKQMTGHNRGLAHRGSKVSFGEYALKATSRGRLTARQIESARRALTRHVKRGGKIWIRVFPDKPVTKKPLEVRMGKGKGGVEYWVAQIQPGKVLYEIEGVSEELAREAFALAAAKLPLATSFVKRTVM
notes: 50 S ribosomal protein uL16, Pseudomonas aeruginosa PAO1, as part of the 70 S ribosome; Stood in the assay as a subunit of the whole 70 S ribosome with mRNA and fMet-tRNA; source: endogenous, in 70 S ribosomes purified from P. aeruginosa PAO1 (sucrose cushion, sucrose density gradients)
binding result [2]: binds

B2: ribosomal protein uL11 (natural protein, UniProt Q9HWC5 1-143, looked up)
chain: MAKKIQAYIKLQVKAGQANPSPPVGPALGQHGVNIMEFCKAFNAKTQGQEPGLPTPVIITVYSDRSFTFETKSTPAAVLLKKAAGITSGSARPNSQKVGTVTRAQLEEIAKTKQADLTAADLDAAVRTIAGSARSMGLNVEGV
notes: 50 S ribosomal protein uL11, Pseudomonas aeruginosa PAO1, as part of the 70 S ribosome; Stood in the assay as a subunit of the whole 70 S ribosome with mRNA and fMet-tRNA; also called uL11-NTD; source: endogenous, in 70 S ribosomes purified from P. aeruginosa PAO1 (sucrose cushion, sucrose density gradients)
binding result [2]: binds
